Measurements published in article PMC9511441, “Semisynthetic teicoplanin derivatives with dual antimicrobial activity against SARS-CoV-2 and multiresistant bacteria” (Scientific Reports, 2022).
≈ marks a conversion by molar mass, not a printed value. Like-named read-outs stand apart in the source and are kept apart here.

Key:
Format in all cases: cell-based
[1] = test system: S.pyogenes; assay: MIC, broth microdilution; conditions: for MIC: Streptococcus pyogenes
Text: (§1) We determined the minimal inhibitory concentrations (MIC) of the teicoplanin conjugates for a large panel of Gram-positive bacterial strains, using vancomycin, unmodified teicoplanin, dalbavancin and oritavancin as reference compounds. […] The bacterial strains (see Suppl. Table S5 for all details) were selected to achieve maximum diversity of multidrug-resistance and include strains with known mechanisms of resistance to glycopeptides in clinical use. The S. epidermidis and S. haemolyticus strains resistant to dalbavancin and oritavancin were obtained in vitro from clinical isolates sensitive to the glycopeptide antibiotics.

[2] = test system: E. faecalis; assay: MIC, broth microdilution; conditions: for MIC: Enterococcus faecalis
Text: as §1

[3] = test system: S. aureus; assay: MIC, broth microdilution; conditions: for MIC: Staphylococcus aureus
Text: as §1

[4] = test system: S. haemolyticus; assay: MIC, broth microdilution; conditions: for MIC: Staphylococcus haemolyticus
Text: as §1

[5] = test system: S. epidermidis; assay: microbe, parasite or virus in culture; conditions: for MIC: Staphylococcus epidermidis
Text: as §1

[6] = test system: E. faecium; assay: microbe, parasite or virus in culture; conditions: for MIC: Enterococcus faecium
Text: as §1

SMILES: CN[C@H]1C(=O)N[C@@H]2Cc3ccc(cc3)Oc3cc4cc(c3O[C@@H]3O[C@H](C(=O)O)[C@@H](O)[C@H](O)[C@H]3NC(=O)CCCCCCCCC(C)C)Oc3ccc(cc3Cl)[C@@H](O)[C@@H]3NC(=O)[C@H](NC(=O)[C@@H]4NC(=O)[C@@H](NC2=O)c2cc(cc(O)c2Cl)Oc2cc1ccc2O)c1ccc(O)c(c1)-c1c(O[C@H]2O[C@H](CO)[C@@H](O)[C@H](O)[C@@H]2O)cc(O)cc1[C@@H](C(=O)NCCCN(C)C)NC3=O [DALB, dalbavancin, reference compound]
- MIC value ([1]; S.pyogenes H232): 0,0625 µg/ml
- MIC value ([1]; S.pyogenes H550): 0,25 µg/ml
- MIC value ([1]; S.pyogenes H578): 0,25 µg/ml
- Average MIC value ([2]; E. faecalis VAN^R,TEI^R/VanA, 1 strain): 64 µg/mL
- Average MIC value ([2]; E. faecalis VAN^S, TEI^S, 2 strains): 0.25 µg/mL
- MIC value ([2]; E.faecalis JH2-2): 0,25 µg/ml
- MIC value ([2]; E.faecalis OG1RF): 0,25 µg/ml
- MIC value ([2]; E.faecalis V583, VAN,TEI/VanA): 64 µg/mL (≈ 35.2 µM)
- MIC value ([3]; S. aureus 73OL, MRSA): 0,125 µg/ml
- MIC value ([3]; S. aureus 214OL, MRSA): 0,125 µg/ml
- MIC value ([3]; S. aureus 1041OL, MRSA): 0,03125 µg/ml
- MIC value ([3]; S. aureus A6918, MRSA): 0,125 µg/ml
- MIC value ([3]; S. aureus A6919, MRSA): 0,0625 µg/ml
- MIC value ([3]; S. aureus ATCC29213, MSSA): 0,125 µg/ml
- Average MIC value ([3]; S. aureus CA-MRSA, 1 strain): 0.0625 µg/mL
- Average MIC value ([3]; S. aureus MRSA, 7 strains): 0.1 µg/mL
- MIC value ([3]; S. aureus MSSA476, MSSA): 0,125 µg/ml
- Average MIC value ([3]; S. aureus MSSA, 4 strains): 0.125 µg/mL
- MIC value ([3]; S. aureus Mu50, MRSA): 0,125 µg/ml
- MIC value ([3]; S. aureus N315, MRSA): 0,125 µg/ml
- MIC value ([3]; S. aureus Newman, MSSA): 0,125 µg/ml
- MIC value ([3]; S. aureus SA564, MSSA): 0,125 µg/ml
- MIC value ([3]; S. aureus USA300, CA-MRSA): 0,0625 µg/ml
- Average MIC value ([4]; S. haemolyticus mecA, 6 strains): 3.83 µg/mL
- MIC value ([4]; S.haemolyticus DALB_R1, mecA): 2 µg/mL (≈ 1.1 µM)
- MIC value ([4]; S.haemolyticus DALB_R2, mecA): 8 µg/mL (≈ 4.4 µM)
- MIC value ([4]; S.haemolyticus DALB_R3, mecA): 2 µg/mL (≈ 1.1 µM)
- MIC value ([4]; S.haemolyticus DALB_R4, mecA): 2 µg/mL (≈ 1.1 µM)
- MIC value ([4]; S.haemolyticus DALB_R5, mecA): 1 µg/mL (≈ 0.55 µM)
- MIC value ([4]; S.haemolyticus ORI_R1, mecA): 8 µg/mL (≈ 4.4 µM)
- Average MIC value ([5]; S. epidermidis mecA, 6 strains): 1.77 µg/mL
- MIC value ([5]; S.epidermidis ORI_R1, mecA): 4 µg/mL (≈ 2.2 µM)
- MIC value ([5]; S.epidermidis ORI_R2, mecA): 4 µg/mL (≈ 2.2 µM)
- MIC value ([5]; S.epidermidis ORI_R3, mecA): 2 µg/mL (≈ 1.1 µM)
- MIC value ([5]; S.epidermidis ORI_R4, mecA): 0,25 µg/ml
- MIC value ([5]; S.epidermidis TEI_R1, mecA): 0,25 µg/ml
- MIC value ([5]; S.epidermidis TEI_R2, mecA): 0,125 µg/ml
- Average MIC value ([6]; E. faecium VAN^R,TEI^R/VanA, 8 strains): 48 µg/mL
- Average MIC value ([6]; E. faecium VAN^S, TEI^S, 1 strain): 0.25 µg/mL
- MIC value ([6]; E.faecium E335, VAN,TEI,LNZ/VanA): 64 µg/mL (≈ 35.2 µM)
- MIC value ([6]; E.faecium E355, VAN,TEI,LNZ/VanA): 32 µg/mL (≈ 17.6 µM)
- MIC value ([6]; E.faecium E832, VAN,TEI,LNZ/VanA): 64 µg/mL (≈ 35.2 µM)
- MIC value ([6]; E.faecium E854, VAN,TEI,LNZ/VanA): 32 µg/mL (≈ 17.6 µM)
- MIC value ([6]; E.faecium E859, VAN,TEI,LNZ/VanA): 32 µg/mL (≈ 17.6 µM)
- MIC value ([6]; E.faecium E1114, VAN,TEI,LNZ/VanA): 64 µg/mL (≈ 35.2 µM)
- MIC value ([6]; E.faecium E1131, VAN,TEI,LNZ/VanA): 64 µg/mL (≈ 35.2 µM)
- MIC value ([6]; E.faecium E1132, VAN,TEI,LNZ/VanA): 32 µg/mL (≈ 17.6 µM)
- MIC value ([6]; E.faecium TX0016): 0,25 µg/ml

SMILES: CN[C@H](CC(C)C)C(=O)N[C@H]1C(=O)N[C@@H](CC(N)=O)C(=O)N[C@H]2C(=O)N[C@H]3C(=O)N[C@H](C(=O)N[C@H](C(=O)O)c4cc(O)cc(O)c4-c4cc3ccc4O)[C@H](O)c3ccc(c(Cl)c3)Oc3cc2cc(c3O[C@@H]2O[C@H](CO)[C@@H](O)[C@H](O)[C@H]2O[C@H]2C[C@](C)(N)[C@H](O)[C@H](C)O2)Oc2ccc(cc2Cl)[C@H]1O [VAN, vancomycin, reference compound]
- MIC ([1]; read-out: MIC value, S.pyogenes H232): 0.0625 µg/mL (≈ 0.0431 µM)
- MIC ([1]; read-out: MIC value, S.pyogenes H550): 0.0625 µg/mL (≈ 0.0431 µM)
- MIC ([1]; read-out: MIC value, S.pyogenes H578): 0.0625 µg/mL (≈ 0.0431 µM)
- MIC ([2]; read-out: Average MIC value, E. faecalis VAN^R,TEI^R/VanA, 1 strain): > 64 µg/mL
- MIC ([2]; read-out: Average MIC value, E. faecalis VAN^S, TEI^S, 2 strains): 0.25 µg/mL (≈ 0.173 µM)
- MIC ([2]; read-out: MIC value, E.faecalis JH2-2): 0.25 µg/mL (≈ 0.173 µM)
- MIC ([2]; read-out: MIC value, E.faecalis OG1RF): 0.25 µg/mL (≈ 0.173 µM)
- MIC ([2]; read-out: MIC value, E.faecalis V583, VAN,TEI/VanA): > 64 µg/mL
- MIC ([3]; ATCC 29213 / MSSA, read-out: MIC value, S. aureus ATCC29213, MSSA): 1 µg/mL (≈ 0.69 µM)
- MIC ([3]; MRSA / USA300, read-out: MIC value, S. aureus USA300, CA-MRSA): 0.25 µg/mL (≈ 0.173 µM)
- MIC ([3]; MRSA, read-out: Average MIC value, S. aureus CA-MRSA, 1 strain): 0.25 µg/mL (≈ 0.173 µM)
- MIC ([3]; MRSA, read-out: Average MIC value, S. aureus MRSA, 7 strains): 1.25 µg/mL (≈ 0.863 µM)
- MIC ([3]; MRSA, read-out: MIC value, S. aureus 73OL, MRSA): 1 µg/mL (≈ 0.69 µM)
- MIC ([3]; MRSA, read-out: MIC value, S. aureus 214OL, MRSA): 1 µg/mL (≈ 0.69 µM)
- MIC ([3]; MRSA, read-out: MIC value, S. aureus 1041OL, MRSA): 1 µg/mL (≈ 0.69 µM)
- MIC ([3]; MRSA, read-out: MIC value, S. aureus A6918, MRSA): 1 µg/mL (≈ 0.69 µM)
- MIC ([3]; MRSA, read-out: MIC value, S. aureus A6919, MRSA): 0.25 µg/mL (≈ 0.173 µM)
- MIC ([3]; MRSA, read-out: MIC value, S. aureus Mu50, MRSA): 4 µg/mL (≈ 2.76 µM)
- MIC ([3]; MRSA, read-out: MIC value, S. aureus N315, MRSA): 0.5 µg/mL (≈ 0.345 µM)
- MIC ([3]; MSSA / NEWMAN, read-out: MIC value, S. aureus Newman, MSSA): 0.5 µg/mL (≈ 0.345 µM)
- MIC ([3]; MSSA, read-out: Average MIC value, S. aureus MSSA, 4 strains): 0.625 µg/mL (≈ 0.431 µM)
- MIC ([3]; MSSA, read-out: MIC value, S. aureus MSSA476, MSSA): 0.5 µg/mL (≈ 0.345 µM)
- MIC ([3]; MSSA, read-out: MIC value, S. aureus SA564, MSSA): 0.5 µg/mL (≈ 0.345 µM)
- MIC ([4]; S. haemolyticus mecA, 6 strains, read-out: Average MIC value): 28 µg/mL (≈ 19.3 µM)
- MIC ([4]; S.haemolyticus DALB_R1, mecA, read-out: MIC value): 32 µg/mL (≈ 22.1 µM)
- MIC ([4]; S.haemolyticus DALB_R2, mecA, read-out: MIC value): 64 µg/mL (≈ 44.2 µM)
- MIC ([4]; S.haemolyticus DALB_R3, mecA, read-out: MIC value): 8 µg/mL (≈ 5.52 µM)
- MIC ([4]; S.haemolyticus DALB_R4, mecA, read-out: MIC value): 32 µg/mL (≈ 22.1 µM)
- MIC ([4]; S.haemolyticus DALB_R5, mecA, read-out: MIC value): 16 µg/mL (≈ 11 µM)
- MIC ([4]; S.haemolyticus ORI_R1, mecA, read-out: MIC value): 16 µg/mL (≈ 11 µM)
- MIC ([5]; read-out: Average MIC value, S. epidermidis mecA, 6 strains): 6.67 µg/mL (≈ 4.6 µM)
- MIC ([5]; read-out: MIC value, S.epidermidis ORI_R1, mecA): 8 µg/mL (≈ 5.52 µM)
- MIC ([5]; read-out: MIC value, S.epidermidis ORI_R2, mecA): 8 µg/mL (≈ 5.52 µM)
- MIC ([5]; read-out: MIC value, S.epidermidis ORI_R3, mecA): 8 µg/mL (≈ 5.52 µM)
- MIC ([5]; read-out: MIC value, S.epidermidis ORI_R4, mecA): 4 µg/mL (≈ 2.76 µM)
- MIC ([5]; read-out: MIC value, S.epidermidis TEI_R1, mecA): 4 µg/mL (≈ 2.76 µM)
- MIC ([5]; read-out: MIC value, S.epidermidis TEI_R2, mecA): 8 µg/mL (≈ 5.52 µM)
- MIC ([6]; read-out: Average MIC value, E. faecium VAN^R,TEI^R/VanA, 8 strains): > 64 µg/mL
- MIC ([6]; read-out: Average MIC value, E. faecium VAN^S, TEI^S, 1 strain): 0.25 µg/mL (≈ 0.173 µM)
- MIC ([6]; read-out: MIC value, E.faecium E335, VAN,TEI,LNZ/VanA): > 64 µg/mL
- MIC ([6]; read-out: MIC value, E.faecium E355, VAN,TEI,LNZ/VanA): > 64 µg/mL
- MIC ([6]; read-out: MIC value, E.faecium E832, VAN,TEI,LNZ/VanA): > 64 µg/mL
- MIC ([6]; read-out: MIC value, E.faecium E854, VAN,TEI,LNZ/VanA): > 64 µg/mL
- MIC ([6]; read-out: MIC value, E.faecium E859, VAN,TEI,LNZ/VanA): > 64 µg/mL
- MIC ([6]; read-out: MIC value, E.faecium E1114, VAN,TEI,LNZ/VanA): > 64 µg/mL
- MIC ([6]; read-out: MIC value, E.faecium E1131, VAN,TEI,LNZ/VanA): > 64 µg/mL
- MIC ([6]; read-out: MIC value, E.faecium E1132, VAN,TEI,LNZ/VanA): > 64 µg/mL
- MIC ([6]; read-out: MIC value, E.faecium TX0016): 0.25 µg/mL (≈ 0.173 µM)
